Where “and” joins values, the source holds several entries; their conditions need not be identical. Identical values can stand only once. Like-named read-outs stand apart in the source and are kept apart here.
What was measured:
patients = experiment: Human use, case histories; type: in vivo
Text: To evaluate the effect of sodium bisulphite in human use (this agent being known to be safe for human consumption), certain patients received this agent. The case history and observations are summarized individually below.
In each case, each patient was provided with a bottle of Solution D, unless otherwise noted, and was instructed to dose himself (or herself, as the case may be) from the bottle so provided at the rate of seven drops to be taken orally with each of his (her) three daily meals. When the contents of one such bottle were thus gradually consumed by an individual patient, another was provided.

[1] = tested on: human, rabbit and rat plasma; experiment: PT (prothrombin time) in plasma in vitro, Example 3; type: biochemical
Text: Sodium, potassium and ammonium bisulphites are found to prolong PT and PTT in a dose-related fashion.
The evaluation procedure used is that described in "Human Blood Coagulation, Haemostasis and Thrombosis", edited by Rosemary Biggs, published by Blackwell Scientific Publications, Oxford, England (2nd Edition), pages 670-705, 1976.

[2] = tested on: human platelet-rich plasma; experiment: Platelet aggregometer, technique of Born, human platelet-rich plasma; type: cell-based; conditions: 1 millimole (mM), ADP, collagen, epinephrine and arachidonic acid
Text: In order to evaluate an antithrombotic effect, it is preferable to withdraw samples of blood from a patient undergoing treatment and measure platelet aggregation. One method is described by Born in Nature 194, pp. 927-929 (1962) and may be used for this purpose, if desired.
That sodium bisulphite is a platelet antiagregatory agent is shown by using a platelet aggregometer based on the technique of Born (above cited).

[3] = PT of coded and various agents, Example 6; type: biochemical
Text: A variety of agents were coded and evaluated under a code designation. Among these compounds, thiouracil, mercaptosuccinic acid, thiosemicarbazide, phenothiazine and sodium thiosulphate were included, so as to compare sodium bisulphite with certain compounds mentioned in USP 4,148,855.
After determination of PT and PTT values, the coded compounds were decoded.
The results are shown in Table V, where mean values of 5 replications in each case are reported. […] This procedure was repeated with some additional compounds on two different days using a different control on each day.

blood = experiment: Storage of human blood samples with added sodium bisulphite solution; conditions: about 4 cc blood plus about 10 drops of 10 weight percent solution; about 2) years at ambient temperatures
Experimental: Samples of about 4 cc each of blood were prepared. To each of these was added about 10 drops of a 10 weight percent solution of sodium bisulphite in distilled water. Each sample was then sealed into a glass vial.

F XII = target: T1, F XII (Homo sapiens, UniProt P00748); experiment: Factor XII assay, Example 4; type: biochemical; conditions: for F XII: Control 86
T1 construct: from tissue; host or cells: human plasma
T1 sequence (P00748 20-615): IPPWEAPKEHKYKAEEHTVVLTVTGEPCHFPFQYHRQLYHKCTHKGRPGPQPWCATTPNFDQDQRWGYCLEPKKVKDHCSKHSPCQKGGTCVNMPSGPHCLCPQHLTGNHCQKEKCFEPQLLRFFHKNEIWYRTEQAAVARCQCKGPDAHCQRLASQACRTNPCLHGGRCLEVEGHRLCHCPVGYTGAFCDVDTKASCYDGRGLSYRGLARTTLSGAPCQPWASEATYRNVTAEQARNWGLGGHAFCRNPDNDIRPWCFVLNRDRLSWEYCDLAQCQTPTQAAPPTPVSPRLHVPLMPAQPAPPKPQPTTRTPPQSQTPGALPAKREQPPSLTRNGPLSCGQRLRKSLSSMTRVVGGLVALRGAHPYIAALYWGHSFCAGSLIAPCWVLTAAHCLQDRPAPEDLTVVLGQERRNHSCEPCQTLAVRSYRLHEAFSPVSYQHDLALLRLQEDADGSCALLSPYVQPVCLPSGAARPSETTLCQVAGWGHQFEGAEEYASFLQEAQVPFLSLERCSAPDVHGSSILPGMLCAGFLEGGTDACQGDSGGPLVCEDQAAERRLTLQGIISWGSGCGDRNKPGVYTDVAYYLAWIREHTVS
Text: (§1) The evaluation procedure used is that described in "Human Blood Coagulation, Haemostasis and Thrombosis", edited by Rosemary Biggs, published by Blackwell Scientific Publications, Oxford, England (2nd Edition), pages 670-705, 1976. […]

[4] = tested on: platelet thrombus formation on damaged aortic wall; experiment: Indium-111 platelet labelling technique in rabbits; type: in vivo; conditions: intravenous 72.80 mg/kg
Experimental: In medicine, arterial thrombosis is diagnosable, for example, by clinical manifestations, by arteriography and, recently, by an indium 111 platelet labelling technique (see, for example, the article entitled "Differential Effects of Two Doses of Aspirin on Platelet-Vessel Wall Interaction In Vivo" by K. K. Wu et al being published in the Journal of Clinical Investigation, August, 1981).
Sodium bisulphite was evaluated as an anti-thrombotic agent in vivo using the indium-111 platelet labelling technique in rabbits (see the Wu et al article above cited). The material was administered by intravenous injection (72.80 milligrams per kilogram of animal body weight).

F X = target: T2, F X (Homo sapiens, UniProt P00742); experiment: Factor X assay, Example 4; type: biochemical; conditions: for F X: Control 78
T2 construct: from tissue; host or cells: human plasma
Text: as §1

Factor V = target: T3, Factor V (Homo sapiens, UniProt P12259); experiment: Factor V assay, Example 4; type: biochemical; conditions: Control 75
T3 construct: from tissue; host or cells: human plasma
Text: as §1

[5] = Test sequence A, active agent 0.5/ml, control
[6] = Sodium bisulphite 0.01 mg/ml, solution D
[7] = Sodium bisulphite 0.05 mg/ml, solution D
[8] = Sodium bisulphite 0.1 mg/ml, solution D
[9] = Sodium bisulphite 0.5 mg/ml, solution D
[10] = Sodium bisulphite 1.0 mg/ml, solution D
[11] = Sodium bisulphite 5.0 mg/ml, solution D
[12] = chemical grade sodium bisulphite 0.01 mg/ml
[13] = chemical grade sodium bisulphite 0.05 mg/ml
[14] = chemical grade sodium bisulphite 0.1 mg/ml
[15] = chemical grade sodium bisulphite 0.5 mg/ml
[16] = chemical grade sodium bisulphite 1.0 mg/ml
[17] = chemical grade sodium bisulphite 5.0 mg/ml

T2 sequence (P00742 41-488): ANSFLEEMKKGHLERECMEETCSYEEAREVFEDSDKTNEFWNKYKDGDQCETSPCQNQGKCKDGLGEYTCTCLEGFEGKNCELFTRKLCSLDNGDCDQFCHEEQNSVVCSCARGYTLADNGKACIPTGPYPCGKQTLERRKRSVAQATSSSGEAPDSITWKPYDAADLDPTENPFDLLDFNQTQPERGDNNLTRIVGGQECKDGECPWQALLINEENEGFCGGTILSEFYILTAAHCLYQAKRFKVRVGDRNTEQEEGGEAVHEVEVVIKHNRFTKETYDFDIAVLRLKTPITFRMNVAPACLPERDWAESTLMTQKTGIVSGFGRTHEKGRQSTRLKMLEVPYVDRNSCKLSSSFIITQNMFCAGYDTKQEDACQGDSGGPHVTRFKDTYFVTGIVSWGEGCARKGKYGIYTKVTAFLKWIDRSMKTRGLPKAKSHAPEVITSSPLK
T3 sequence (P12259 29-2224): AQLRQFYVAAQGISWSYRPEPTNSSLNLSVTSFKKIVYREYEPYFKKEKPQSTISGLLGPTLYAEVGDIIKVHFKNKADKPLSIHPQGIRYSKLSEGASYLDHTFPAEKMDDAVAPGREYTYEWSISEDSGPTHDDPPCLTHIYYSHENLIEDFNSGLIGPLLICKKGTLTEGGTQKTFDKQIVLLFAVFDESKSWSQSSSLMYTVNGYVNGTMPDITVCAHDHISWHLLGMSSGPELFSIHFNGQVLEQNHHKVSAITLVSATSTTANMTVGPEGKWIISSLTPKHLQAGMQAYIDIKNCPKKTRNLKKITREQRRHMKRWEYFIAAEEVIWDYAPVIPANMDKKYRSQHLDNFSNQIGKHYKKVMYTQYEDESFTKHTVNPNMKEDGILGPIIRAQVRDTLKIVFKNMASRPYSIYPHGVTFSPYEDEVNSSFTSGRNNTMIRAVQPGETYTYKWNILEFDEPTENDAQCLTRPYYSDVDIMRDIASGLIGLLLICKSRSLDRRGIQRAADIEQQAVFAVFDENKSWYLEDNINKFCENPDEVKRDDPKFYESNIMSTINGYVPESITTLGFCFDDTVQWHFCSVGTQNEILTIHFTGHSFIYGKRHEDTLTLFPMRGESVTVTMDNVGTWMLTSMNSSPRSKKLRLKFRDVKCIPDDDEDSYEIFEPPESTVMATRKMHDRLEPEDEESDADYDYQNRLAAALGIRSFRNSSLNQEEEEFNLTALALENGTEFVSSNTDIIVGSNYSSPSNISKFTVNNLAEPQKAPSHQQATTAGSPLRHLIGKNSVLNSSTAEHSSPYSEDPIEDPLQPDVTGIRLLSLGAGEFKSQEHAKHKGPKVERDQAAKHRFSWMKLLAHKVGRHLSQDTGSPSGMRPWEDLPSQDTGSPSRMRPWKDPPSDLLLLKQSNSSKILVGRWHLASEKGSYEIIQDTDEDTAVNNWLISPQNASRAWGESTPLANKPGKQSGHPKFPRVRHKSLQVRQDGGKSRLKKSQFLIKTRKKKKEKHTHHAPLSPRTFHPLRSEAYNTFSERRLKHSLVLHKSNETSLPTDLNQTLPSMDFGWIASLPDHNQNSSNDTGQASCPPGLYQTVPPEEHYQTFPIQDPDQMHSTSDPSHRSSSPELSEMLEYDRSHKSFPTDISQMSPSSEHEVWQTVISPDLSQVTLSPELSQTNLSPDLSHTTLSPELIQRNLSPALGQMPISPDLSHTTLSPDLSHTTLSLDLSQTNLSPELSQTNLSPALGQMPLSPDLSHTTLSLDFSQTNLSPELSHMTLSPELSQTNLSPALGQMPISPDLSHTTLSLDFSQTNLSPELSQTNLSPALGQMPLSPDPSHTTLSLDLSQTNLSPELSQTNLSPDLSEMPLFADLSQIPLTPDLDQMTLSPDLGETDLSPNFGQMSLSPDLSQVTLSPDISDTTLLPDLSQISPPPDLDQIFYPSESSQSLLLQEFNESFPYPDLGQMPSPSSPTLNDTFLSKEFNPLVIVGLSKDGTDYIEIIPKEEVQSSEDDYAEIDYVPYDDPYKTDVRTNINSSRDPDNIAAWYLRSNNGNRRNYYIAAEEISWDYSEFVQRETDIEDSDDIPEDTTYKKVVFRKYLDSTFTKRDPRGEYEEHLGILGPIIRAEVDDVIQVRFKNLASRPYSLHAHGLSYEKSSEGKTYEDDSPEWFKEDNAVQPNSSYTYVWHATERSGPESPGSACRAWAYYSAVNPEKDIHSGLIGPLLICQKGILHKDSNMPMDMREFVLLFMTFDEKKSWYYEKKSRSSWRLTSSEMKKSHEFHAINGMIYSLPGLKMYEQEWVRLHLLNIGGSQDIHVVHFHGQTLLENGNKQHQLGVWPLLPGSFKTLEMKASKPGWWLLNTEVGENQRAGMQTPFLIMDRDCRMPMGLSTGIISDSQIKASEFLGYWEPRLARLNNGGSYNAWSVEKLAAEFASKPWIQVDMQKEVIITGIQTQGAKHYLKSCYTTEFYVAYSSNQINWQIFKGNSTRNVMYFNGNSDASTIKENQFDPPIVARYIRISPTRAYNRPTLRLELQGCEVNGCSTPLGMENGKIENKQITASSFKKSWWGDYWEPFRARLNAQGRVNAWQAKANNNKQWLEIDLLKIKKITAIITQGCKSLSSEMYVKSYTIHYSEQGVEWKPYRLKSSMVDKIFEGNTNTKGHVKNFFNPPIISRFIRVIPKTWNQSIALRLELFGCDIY

## Sodium bisulphite
patients; after about 5 years, before between 200 and 220 mg %
  Case IV: blood cholesterol value: about 144 mg %
patients; person, Solutions A, B, C or D orally, within 2-3 months
  Case IV: hypertension, arthritis, arrhythmia, haemorrhoids, dyspepsia, cyanotic fingers and toes, malaise (except diabetes): improved
[1]; 0.5 mg/ml, human, rabbit and rat plasma in vitro, dose-related
  prolongation of PT: significantly prolong
[1]; [5]
  PT (seconds) Exp. 1 A: 22.1 s
  PT (seconds) Exp.2 A: 23.2 s
[1]; Test sequence B, active agent 0.5/ml, control
  PT (seconds) Exp. 1 A: 25.5 s
[2]
  platelet aggregation: abolishes platelet aggregation
[3]
  PT: 22.42 s
[3]; Table V, coded agents 0.5 mg/ml, Control 12.92
  PT: 23.06 s
blood
  coagulation of stored blood samples: have not coagulated
F XII; 0.5 mg per ml, human plasma
  effect on Factor XII: significant inhibitory effect
F XII; [6]
  F XII: 94%
F XII; [7]
  F XII: 87%
F XII; [8]
  F XII: 79%
F XII; [9]
  F XII: 17%
F XII; [10]
  F XII: 3%
F XII; [11]
  F XII: <1%
F XII; [12]
  F XII: 104
F XII; [13]
  F XII: 102
F XII; [14]
  F XII: 75
F XII; [15]
  F XII: 25
F XII; [16]
  F XII: 9
F XII; [17]
  F XII: <1
[4]; rabbits A, B, per gram dry weight of tissue, Control 72,140± 39,040
  Platelet accumulation II. at normal vessel wall cpm/gm: 98,611 cpm/gm and 83,066 cpm/gm
[4]; rabbits A, B, per gram dry weight of tissue, Control 1,167,820± 21,310
  Platelet accumulation I. at damaged vessel wall cpm/gm: 133,986 cpm/gm and 146,630 cpm/gm
[4]; rabbits A, B, percentage of injected radioactivity per gram dry weight, Control 0.03± 0.02
  Platelet accumulation II. at normal vessel wall %: 0.08%
[4]; rabbits A, B, percentage of injected radioactivity per gram dry weight, Control 0.44± 0.08, 72.8 mg/kg
  Platelet accumulation I. at damaged vessel wall %: 0.11% and 0.15%
[4]; rabbits
  reduction of accumulation of platelet thrombus at the damaged vessel wall: 70%
F X; 0.5 mg per ml, human plasma
  effect on Factor X: significant inhibitory effect
F X; [6]
  F X: 73%
F X; [7]
  F X: 68%
F X; [8]
  F X: 66%
F X; [9]
  F X: 31%
F X; [10]
  F X: 11%
F X; [11]
  F X: 3%
F X; [12]
  F X: 80
F X; [13]
  F X: 69
F X; [14]
  F X: 66
F X; [15]
  F X: 22
F X; [16]
  F X: 6
F X; [17]
  F X: 4
Factor V; [6]
  Factor V: 74%
Factor V; [7]
  Factor V: 72%
Factor V; [8]
  Factor V: 80%
Factor V; [9]
  Factor V: 70%
Factor V; [10]
  Factor V: 60%
Factor V; [11]
  Factor V: 54%
Factor V; [12]
  Factor V: 70
Factor V; [13]
  Factor V: 68
Factor V; [14]
  Factor V: 68
Factor V; [15]
  Factor V: 64
Factor V; [16]
  Factor V: 66
Factor V; [17]
  Factor V: 60

From patent EP0055702B1, “Antithrombotic treatment” (priority 1980, dated 1982)
